Experimental data taken from US20180339963A1, “ANTICONVULSANT CARBAMATE DERIVATIVES” (Yissum Research Development Company of the Hebrew …, priority 2017, published 2018).
Read-outs that look alike come from different tables or passages of the source. Marks after values point to notes of the source that are not given here.

Assays:
hCA I = target: T1, hCA I (Homo sapiens, UniProt P00915); test: Stopped flow CO2 hydrase assay, hCA I; type: biochemical; settings: mean from 3 assays, read-out: K1, hCAI
T1 construct: made in house
T1 sequence (P00915 whole entry): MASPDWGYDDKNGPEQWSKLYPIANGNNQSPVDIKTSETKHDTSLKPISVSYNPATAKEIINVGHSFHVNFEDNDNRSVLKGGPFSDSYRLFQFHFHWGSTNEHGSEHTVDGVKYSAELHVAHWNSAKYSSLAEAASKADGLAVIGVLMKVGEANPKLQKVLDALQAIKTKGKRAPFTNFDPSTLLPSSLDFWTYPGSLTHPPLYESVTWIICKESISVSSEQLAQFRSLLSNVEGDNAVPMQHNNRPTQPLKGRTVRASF
Description: (§1) An Applied Photophysics stopped-flow instrument has been used for assaying the CA catalysed CO2 hydration activity. Phenol red (at a concentration of 0.2 mM) has been used as indicator, working at the absorbance maximum of 557 nm, with 20 mM Hepes (pH 7.5) as buffer, and 20 mM Na2SO4 (for maintaining constant the ionic strength), following the initial rates of the CA-catalyzed CO2 hydration reaction for a period of 10-100 s. The CO2 concentrations ranged from 1.7 to 17 mM for the determination of the kinetic parameters and inhibition constants. […] The uncatalyzed rates were determined in the same manner and subtracted from the total observed rates. Stock solutions of inhibitor (0.1 mM) were prepared in distilled-deionized water and dilutions up to 0.01 nM were done thereafter with the assay buffer. […] The inhibition constants were obtained by non-linear least-squares methods using PRISM 3 and the Cheng-Prusoff equation, as reported earlier and represent the mean from at least three different determinations. All CA isofoms were recombinant ones obtained in-house.

mice = test: Neurotoxicity (minimal motor impairment, rotarod) in mice; settings: mice i.p.
hCA II = target: T2, hCA II (Homo sapiens, UniProt P00918); test: Stopped flow CO2 hydrase assay, hCA II; type: biochemical; settings: mean from 3 assays, read-out: K1, hCA II
T2 construct: made in house
Description: as §1

[1] = test system: maximal electroshock seizure (MES); test: Maximal electroshock seizure (MES) test in mice; settings: Mus musculus, ip; for responders at 30 mg/kg / responders at 100 mg/kg / responders at 300 mg/kg: read-out: MES, number of mice protected/number of mice tested; for ED50: read-out: MES-ED50, mice, i.p.
in vivo [2] = settings: Sprague-Dawley, rat
in vivo [3] = settings: male, CF no. 1 albino, mouse, ip
[4] = test system: pentylenetetrazol-induced seizure (scMet); test: Subcutaneous metrazol seizure test (scMet) in rats; settings: for ED50: Rattus norvegicus, po, read-out: scMet ED50; for scMet ED50: rats, p.o.
6 Hz psychomotor seizure = 6 Hz psychomotor seizure test in mice; settings: Mus musculus, ip; for responders at 30 mg/kg / responders at 100 mg/kg / responders at 300 mg/kg: read-out: 6 Hz, number of mice protected/number of mice tested
hCA IV = target: T3, hCA IV (Homo sapiens, UniProt P22748); test: Stopped flow CO2 hydrase assay, hCA IV; type: biochemical; settings: mean from 3 assays
T3 construct: made in house
T3 sequence (P22748 19-284): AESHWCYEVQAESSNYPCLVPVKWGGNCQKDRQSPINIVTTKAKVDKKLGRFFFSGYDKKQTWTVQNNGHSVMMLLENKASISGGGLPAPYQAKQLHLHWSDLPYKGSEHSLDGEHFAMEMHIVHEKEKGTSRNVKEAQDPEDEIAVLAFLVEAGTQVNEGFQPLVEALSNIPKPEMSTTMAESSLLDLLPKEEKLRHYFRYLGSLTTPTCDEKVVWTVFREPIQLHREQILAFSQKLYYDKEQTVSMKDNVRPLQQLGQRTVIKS
Description: as §1

hCA VII = target: T4, hCA VII (Homo sapiens, UniProt P43166); test: Stopped flow CO2 hydrase assay, hCA VII; type: biochemical; settings: mean from 3 assays, read-out: K1, hCA VII
T4 construct: made in house
T4 sequence (P43166 whole entry): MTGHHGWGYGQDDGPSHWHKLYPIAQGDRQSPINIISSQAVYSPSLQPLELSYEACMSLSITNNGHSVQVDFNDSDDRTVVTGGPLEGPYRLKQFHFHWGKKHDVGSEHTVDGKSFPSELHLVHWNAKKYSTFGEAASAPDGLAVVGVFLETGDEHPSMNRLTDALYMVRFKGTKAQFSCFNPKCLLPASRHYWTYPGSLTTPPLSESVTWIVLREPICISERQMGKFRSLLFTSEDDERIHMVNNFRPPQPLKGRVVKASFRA
Description: as §1

[5] = test system: maximal electroshock seizure (MES); test: Maximal electroshock seizure (MES) test in rats; settings: for ED50: Rattus norvegicus; for MES-ED50: rats, p.o.
SWV mice = test: Teratogenicity in the SWV mouse model; type: in vivo; settings: for No. of fetuses with NTDs / No. of implants / No. of live fetuses / No. of resorptions / Fetal weight mean ± SD: day 8.5 of gestation; for Fetal weight mean ± SD: in g (unit assumed); for No. of live fetuses, figure in parentheses / No. of resorptions, figure in parentheses: share of implants; for No. of fetuses with NTDs, figure in parentheses: share of live fetuses
Description: The teratogenic properties of the newly designed compounds (1-10) were evaluated in the highly inbred SWV mice strain known for its high susceptibility to VPA-induced neural tube defects (NTDs). Two month old nulligravid females, were mated overnight with males and examined for the presence of vaginal plugs the following morning, and the onset of gestation was considered to be 10 p.m. of the previous night, the midpoint of the dark cycle. At day 8.5 of gestation, each dam received a single i.p. injection of the test compounds in an equimolar dose of 0.9 or 1.8 mmol/kg and the control dams were injected with vehicle (25% water solution of Cremophore EL, Fluka Biochemica Germany). The volume of injection was 10 μL/g of body weight. […] At gestation day […], the dams were euthanized by carbon dioxide asphyxiation followed by cervical dislocation. After the opening the uterus, the location of all viable fetuses and resorption sites were recorded, and the fetuses were examined for the presence of exencephaly or other gross congenital abnormalities. The teratogenicity data (implantations, resorptions and NTDs) were evaluated for significant differences between the control and treated groups by analyzing the contingency table with Fisher's exact test. Statistical analysis was conducted using GraphPad InStat (version 3.06; GraphPad Software, San Diego, Calif., USA), and the results of all tests were considered to be statistically significant when the p-value was less than 0.05

[6] = test system: pentylenetetrazol-induced seizure (scMet); test: Subcutaneous metrazol seizure test (scMet) in mice; settings: Mus musculus, ip, read-out: scMet-ED50
corneal kindled mouse = test: Corneal kindled mouse (CKM) model; type: in vivo; settings: ip, mice
[7] = read-out: 6 Hz-ED50, mice, i.p., 32 mA
[8] = po, read-out: MES-ED50, rats, p.o.

For `CCC(C)C(C)OC(=O)Nc1ccc(S(N)(=O)=O)cc1` (stereo not shown) [Compound 9, 3-methylpentan-2-yl (4-sulfamoylphenyl)carbamate], the Ki (hCA I) was 72.9 nM, the “Tox (motor impairment or sedation), number of animals affected/number of animals tested” value (mice; 30 mg/kg, 0.5 h) was 0/8 and the “Tox (motor impairment or sedation), number of animals affected/number of animals tested” value (mice; 30 mg/kg, 2.0 h) was 0/8. For the same compound, the “Tox (motor impairment or sedation), number of animals affected/number of animals tested” value (mice; 100 mg/kg, 0.5 h) was 0/8, the “Tox (motor impairment or sedation), number of animals affected/number of animals tested” value (mice; 100 mg/kg, 2.0 h) was 0/8 and the “Tox (motor impairment or sedation), number of animals affected/number of animals tested” value (mice; 300 mg/kg, 0.5 h) was 0/8. The “Tox (motor impairment or sedation), number of animals affected/number of animals tested” value (mice; 300 mg/kg, 2.0 h) was 0/8, the Ki (hCA II) was 5.4 nM and the responders at 30 mg/kg ([1]; 0.5 h) was 75%. It also gave a responders at 100 mg/kg ([1]; 0.5 h) of 75%, a responders at 300 mg/kg ([1]; 0.5 h) of 100% and a responders at 30 mg/kg ([1]; 2 h) of 0%. The responders at 100 mg/kg ([1]; 2 h) was 100%, the responders at 300 mg/kg ([1]; 2 h) was 100% and the ED50 [1] was 31 mg/kg. For the same compound, the TD50 (in vivo [2]; male, po) was greater than 500 mg/kg, the TD50 (in vivo [3]) was greater than 600 mg/kg and the melting point was 179 to 180 °C. For the same compound, the ED50 [4] was greater than 250 mg/kg, the “scMet ED50” value [4] was “inactive” and the responders at 30 mg/kg (6 Hz psychomotor seizure; 0.5 h) was 50%. The responders at 100 mg/kg (6 Hz psychomotor seizure; 0.5 h) was 50%, the responders at 300 mg/kg (6 Hz psychomotor seizure; 0.5 h) was 100% and the responders at 30 mg/kg (6 Hz psychomotor seizure; 2 h) was 0%. It also gave a responders at 100 mg/kg (6 Hz psychomotor seizure; 2 h) of 0%, a responders at 300 mg/kg (6 Hz psychomotor seizure; 2 h) of 25% and an ED50 (6 Hz psychomotor seizure; [7]) of 53 mg/kg. The “K1, hCA IV” value (hCA IV) was “medium potency inhibitors”, the Ki (hCA IV; read-out: K1, hCA IV) was 183 nM and the Ki (hCA VII) was 35.5 nM. For the same compound, the ED50 [5, 8] was 23 mg/kg, the MES-ED50 [5] was 28 mg/kg and the “induction of neural tube defects relative to anticonvulsant effective dose (in words)” value (SWV mice) was “induced neural tube defects only at doses markedly exceeding their effective dose”. For the same compound, the “No. of fetuses with NTDs” value (SWV mice; single i.p. 0.9 mmol/kg) was 3, the No. of implants (SWV mice; single i.p. 0.9 mmol/kg) was 126 and the “No. of live fetuses” value (SWV mice; single i.p. 0.9 mmol/kg) was 109. The No. of resorptions (SWV mice; single i.p. 0.9 mmol/kg) was 17, the “Fetal weight mean ± SD” value (SWV mice; single i.p. 0.9 mmol/kg) was 0.90 ± 0.07 and the No. of live fetuses, figure in parentheses (SWV mice; single i.p. 0.9 mmol/kg) was 86.5%. For the same compound, the No. of resorptions, figure in parentheses (SWV mice; single i.p. 0.9 mmol/kg) was 13.5%, the “No. of fetuses with NTDs, figure in parentheses” value (from here on “No. of fetuses with NTDs, figure”) (SWV mice; single i.p. 0.9 mmol/kg) was “(2.8)” and the “No. of fetuses with NTDs” value (SWV mice; single i.p. 1.8 mmol/kg) was 9. The No. of implants (SWV mice; single i.p. 1.8 mmol/kg) was 107, the “No. of live fetuses” value (SWV mice; single i.p. 1.8 mmol/kg) was 49 and the No. of resorptions (SWV mice; single i.p. 1.8 mmol/kg) was 58. For the same compound, the “Fetal weight mean ± SD” value (SWV mice; single i.p. 1.8 mmol/kg) was 0.89 ± 0.08, the No. of live fetuses, figure in parentheses (SWV mice; single i.p. 1.8 mmol/kg) was 45.8% and the No. of resorptions, figure in parentheses (SWV mice; single i.p. 1.8 mmol/kg) was 54.2%. For the same compound, the “No. of fetuses with NTDs, figure” value (SWV mice; single i.p. 1.8 mmol/kg) was “(18.4)*” and the ED50 [6] was 369 mg/kg.

With `CCC(C)CCOC(=O)Nc1ccc(S(N)(=O)=O)cc1` (stereo not shown) [Compound 10, 3-methylpentyl(4-sulfamoylphenyl)carbamate] the “Tox (motor impairment or sedation), number of animals affected/number of animals tested” value (mice; 30 mg/kg, 0.5 h) was 1/8, the “Tox (motor impairment or sedation), number of animals affected/number of animals tested” value (mice; 30 mg/kg, 2.0 h) was 0/8 and the “Tox (motor impairment or sedation), number of animals affected/number of animals tested” value (mice; 100 mg/kg, 0.5 h) was 0/8. For the same compound, the “Tox (motor impairment or sedation), number of animals affected/number of animals tested” value (mice; 100 mg/kg, 2.0 h) was 0/8, the “Tox (motor impairment or sedation), number of animals affected/number of animals tested” value (mice; 300 mg/kg, 0.5 h) was 1/8 and the “Tox (motor impairment or sedation), number of animals affected/number of animals tested” value (mice; 300 mg/kg, 2.0 h) was 0/8. For the same compound, the ED50 (corneal kindled mouse) was 59 mg/kg, the responders at 30 mg/kg ([1]; 0.5 h) was 75% and the responders at 100 mg/kg ([1]; 0.5 h) was 100%. It also gave a responders at 300 mg/kg ([1]; 0.5 h) of 75%, a responders at 30 mg/kg ([1]; 2 h) of 25% and a responders at 100 mg/kg ([1]; 2 h) of 100%. It also gave a responders at 300 mg/kg ([1]; 2 h) of 100%, an ED50 [1] of 14 mg/kg and a TD50 (in vivo [2]; ip) greater than 250 mg/kg. For the same compound, the TD50 (in vivo [2]; male, po) was greater than 500 mg/kg, the TD50 (in vivo [3]) was 698 mg/kg and the melting point was 168 to 169 °C. For the same compound, the ED50 [4] was greater than 250 mg/kg, the “scMet ED50” value [4] was “inactive” and the responders at 30 mg/kg (6 Hz psychomotor seizure; 0.5 h) was 25%. For the same compound, the responders at 100 mg/kg (6 Hz psychomotor seizure; 0.5 h) was 75%, the responders at 300 mg/kg (6 Hz psychomotor seizure; 0.5 h) was 100% and the responders at 30 mg/kg (6 Hz psychomotor seizure; 2 h) was 0%. For the same compound, the responders at 100 mg/kg (6 Hz psychomotor seizure; 2 h) was 50%, the responders at 300 mg/kg (6 Hz psychomotor seizure; 2 h) was 100% and the ED50 (6 Hz psychomotor seizure; read-out: 6 Hz (44 mA)-ED50, mice, i.p., 44 mA) was 88 mg/kg. The ED50 (6 Hz psychomotor seizure; [7]) was 80 mg/kg, the Ki (hCA VII) was 351 nM and the ED50 ([5]; ip, read-out: MES-ED50, rats, i.p.) was 13 mg/kg. For the same compound, the ED50 [5, 8] was 28 mg/kg, the MES-ED50 [5] was 23 mg/kg and the “induction of neural tube defects relative to anticonvulsant effective dose (in words)” value (SWV mice) was “induced neural tube defects only at doses markedly exceeding their effective dose”. The “No. of fetuses with NTDs” value (SWV mice; single i.p. 0.9 mmol/kg) was 9, the No. of implants (SWV mice; single i.p. 0.9 mmol/kg) was 145 and the “No. of live fetuses” value (SWV mice; single i.p. 0.9 mmol/kg) was 116. The No. of resorptions (SWV mice; single i.p. 0.9 mmol/kg) was 29, the “Fetal weight mean ± SD” value (SWV mice; single i.p. 0.9 mmol/kg) was 0.88 ± 0.03 and the No. of live fetuses, figure in parentheses (SWV mice; single i.p. 0.9 mmol/kg) was 80%. The No. of resorptions, figure in parentheses (SWV mice; single i.p. 0.9 mmol/kg) was 20%, the “No. of fetuses with NTDs, figure” value (SWV mice; single i.p. 0.9 mmol/kg) was “(7.8)*” and the “No. of fetuses with NTDs” value (SWV mice; single i.p. 1.8 mmol/kg) was 17. The No. of implants (SWV mice; single i.p. 1.8 mmol/kg) was 108, the “No. of live fetuses” value (SWV mice; single i.p. 1.8 mmol/kg) was 56 and the No. of resorptions (SWV mice; single i.p. 1.8 mmol/kg) was 52. The “Fetal weight mean ± SD” value (SWV mice; single i.p. 1.8 mmol/kg) was 0.87 ± 0.08, the No. of live fetuses, figure in parentheses (SWV mice; single i.p. 1.8 mmol/kg) was 51.9% and the No. of resorptions, figure in parentheses (SWV mice; single i.p. 1.8 mmol/kg) was 48.2%. For the same compound, the “No. of fetuses with NTDs, figure” value (SWV mice; single i.p. 1.8 mmol/kg) was “(30.4)*” and the ED50 [6] was 70 mg/kg.
